From patent US20220183282A1, “Fatty Acid Derivatives For Improving The Effect Of Agrochemical Actives” (priority 2019, published 2022)

Columns and labels:
apple leaf cuticles [1] = assay: Penetration of Flufenacet through isolated apple leaf cuticles in the presence of test substances; conditions: apple, 0.75 g/L
Text: (§1) Surfactants can affect the absorption of (active) ingredients through membranes such as skin, films or the plant cuticle. As a “finite-dose” application, it is known for the single administration or application of a solution, cream, gel etc. to a membrane that the absorption of active ingredient can be influenced by some additives such as surfactants even after wetting.
(§2) The principle of the method has been published and described in detail e.g. in WO-A-2005/194844 or WO2017211572 A1). The leaf cuticles were enzymatically isolated in the manner described in the literature from apple leaves of orchard trees in a commercial stone fruit growing facility near Frankfurt am Main in 2017. The stomata-free cuticles were first dried under air and then installed into stainless steel diffusion cells. After application to the original upper side of the leaf and evaporation of the test liquid, i.e. of the spray liquids of the active ingredients with or without the inventive substances or comparative compositions, the diffusion cells were transferred into thermostated blocks and charged with aqueous liquid. The water used to make up the aqueous test liquids was local tap water (of known composition). At regular intervals, aliquot samples were taken and the proportion of active ingredient penetrated was determined by HPLC or alternatively by radio-chemical method where radio-labelled active ingredient was used as tracer to determine the concentration. During the experiment, the temperature in the system (block, diffusion cells, liquids, etc.) and the air humidity above the spray deposit on the cuticle were controlled. […] The analytical determination by means of HPLC (1290 Infinity, Agilent) was effected thereafter with a Kinetex column 30×2, 1 mm, 2.6μ C18 100 A (Phenomenex), taking a 20 μL aliquot as injection volume at the specified times. In each case, the geometric mean values of the penetration for intact membranes at the mean measurement times are given.

apple leaf cuticles [2] = assay: Penetration of Imidacloprid through isolated apple leaf cuticles in the presence of test substances; conditions: apple, 0.5 g/L
Text: as §1
(§3) The principle of the method has been published and described in detail e.g. in WO-A-2005/194844 or WO2017211572 A1). The leaf cuticles were enzymatically isolated in the manner described in the literature from apple leaves of orchard trees in a commercial stone fruit growing facility near Frankfurt am Main in 2017. The stomata-free cuticles were first dried under air and then installed into stainless steel diffusion cells. After application to the original upper side of the leaf and evaporation of the test liquid, i.e. of the spray liquids of the active ingredients with or without the inventive substances or comparative compositions, the diffusion cells were transferred into thermostated blocks and charged with aqueous liquid. The water used to make up the aqueous test liquids was local tap water (of known composition). At regular intervals, aliquot samples were taken and the proportion of active ingredient penetrated was determined by HPLC or alternatively by radio-chemical method where radio-labelled active ingredient was used as tracer to determine the concentration. During the experiment, the temperature in the system (block, diffusion cells, liquids, etc.) and the air humidity above the spray deposit on the cuticle were controlled. In the experiment, relative air humidity was constant throughout at 56% relative air humidity (air over supersaturated calcium nitrate) at a constant 10° C. or 25° C. The analytical determination by means of HPLC (1290 Infinity, Agilent) was effected thereafter with a Kinetex column 30×2, 1 mm, 2.6μ C18 100 A (Phenomenex), taking a 20 μL aliquot as injection volume at the specified times. In each case, the geometric mean values of the penetration for intact membranes at the mean measurement times are given.

apple leaf cuticles [3] = assay: Penetration of MCPA through isolated apple leaf cuticles in the presence of test substances; conditions: MCPA 1.5 g/L in spray liquid, no test substance, 25° C./56% rel. air humidity
Text: as §1, §3

apple leaf cuticles [4] = assay: Penetration of Mesosulfuron-methyl through isolated apple leaf cuticles in the presence of test substances; type: in vitro ADME; conditions: Mesosulfuron-methyl 0.1 g/L in spray liquid, no test substance, 10° C./61% rel. air humidity
Text: as §1, §2

apple leaf cuticles [5] = assay: Penetration of Mesotrione through isolated apple leaf cuticles in the presence of test substances; conditions: Mesotrione 0.5 g/L in spray liquid, no test substance
Text: as §1
as §3, with “In each case, the geometric mean values of the penetration for intact membranes at the mean measurement times are given.” left out

apple leaf cuticles [6] = assay: Penetration of lodosulfuron-methyl through isolated apple leaf cuticles in the presence of test substances; type: in vitro ADME; conditions: lodosulfuron-methyl 0.1 g/L in spray liquid, no test substance, 10° C./61% rel. air humidity
Text: as §1, §2

[7] = Dynamic surface tension, bubble pressure method (BP2100 tensiometer, Krüss); type: physicochemical
Experimental: Dynamic surface tension was determined via the bubble pressure method (BP2100 tensiometer, Krüss). Given a timespan of relevance for the spray application of agrochemicals in aqueous dilution (called the surface age in the bubble pressure method) of 200 milliseconds (ms), the value for dynamic surface tension in [mN/m] correlates with the adhesion on plants that are difficult to wet, such as barley (cereal). A value of 50 mN/m (at 20-21° C.) with respect to water (72.8 mN/m) results in an improvement in the adhesion from “zero adhesion” (0%) to about 50% (Baur P., Pontzen R.; 2007; Basic features of plant surface wettability and deposit formation and the impact of adjuvant; in R. E. Gaskin ed. Proceedings of the 8th International Symposium on Adjuvants for Agrochemicals; Publisher: International Society for Agrochemical Adjuvants (ISAA), Columbus, Ohio, USA).

CC(C)N(C(=O)COc1nnc(C(F)(F)F)s1)c1ccc(F)cc1 [Flufenacet, reference compound]
Mean penetration for Flufenacet after time (apple leaf cuticles [1]; 1 day): 0.4%
Mean penetration for Flufenacet after time (apple leaf cuticles [1]; 2 days): 0.7%

O=[N+]([O-])NC1=NCCN1Cc1ccc(Cl)nc1 [Imidacloprid, reference compound]
Mean penetration for Imidacloprid after time (apple leaf cuticles [2]; 1 day): 0.5%
Mean penetration for Imidacloprid after time (apple leaf cuticles [2]; 4 days): 1.3%

Cc1cc(Cl)ccc1OCC(=O)O [MCPA, reference compound]
Mean penetration for MCPA after time (apple leaf cuticles [3]; 0.5 day): 9.0%
Mean penetration for MCPA after time (apple leaf cuticles [3]; 1 day): 17.1%

COC(=O)c1ccc(CNS(C)(=O)=O)cc1S(=O)(=O)NC(=O)Nc1nc(OC)cc(OC)n1 [Mesosulfuron-methyl, reference compound]
Mean penetration for Mesosulfuron-methyl after time (apple leaf cuticles [4]; 1 day): 0%
Mean penetration for Mesosulfuron-methyl after time (apple leaf cuticles [4]; 2 days): 0%

CS(=O)(=O)c1ccc(C(=O)C2C(=O)CCCC2=O)c([N+](=O)[O-])c1 [Mesotrione]
Mean penetration for Mesotrione after time (apple leaf cuticles [5]; 1 day): 0%
Mean penetration for Mesotrione after time (apple leaf cuticles [5]; 2 days): 0%

COC(=O)c1ccc(I)cc1S(=O)(=O)NC(=O)Nc1nc(C)nc(OC)n1 [lodosulfuron-methyl, reference compound]
Mean penetration for lodosulfuron-methyl after time (apple leaf cuticles [6]; 1 day): 0%
Mean penetration for lodosulfuron-methyl after time (apple leaf cuticles [6]; 2 days): 0%

C8/C10 fatty acid 6 EO ester methyl ether [A2]
Dynamic Surface tension ([7]; 0.3 g/L, 20 ms): 54.5 mN/m
Dynamic Surface tension ([7]; 0.3 g/L, 50 ms): 54.5 mN/m
Dynamic Surface tension ([7]; 0.3 g/L, 100 ms): 54.5 mN/m
Dynamic Surface tension ([7]; 0.3 g/L, 200 ms): 54.5 mN/m
Dynamic Surface tension ([7]; 1 g/L, 20 ms): 42.0 mN/m
Dynamic Surface tension ([7]; 1 g/L, 50 ms): 42.0 mN/m
Dynamic Surface tension ([7]; 1 g/L, 100 ms): 42.0 mN/m
Dynamic Surface tension ([7]; 1 g/L, 200 ms): 42.0 mN/m
Dynamic Surface tension ([7]; 3 g/L, 20 ms): 31.5 mN/m
Dynamic Surface tension ([7]; 3 g/L, 50 ms): 31.5 mN/m
Dynamic Surface tension ([7]; 3 g/L, 100 ms): 31.5 mN/m
Dynamic Surface tension ([7]; 3 g/L, 200 ms): 31.5 mN/m
Dynamic Surface tension ([7]; 10 g/L, 20 ms): 28.5 mN/m
Dynamic Surface tension ([7]; 10 g/L, 50 ms): 28.5 mN/m
Dynamic Surface tension ([7]; 10 g/L, 100 ms): 28.5 mN/m
Dynamic Surface tension ([7]; 10 g/L, 200 ms): 28.5 mN/m
